EC50 data for four compounds are collected here from BindingDB's records for doi:10.1016/j.ejmech.2017.04.079 (Harvard Medical School, 2017).

Assay [1] in a line: Inhibition of EML4/ALK (unknown origin) transfected in mouse BAF3 cells assessed as reduction in cell viability after 72 hrs by MTS assay.
Assay [2] is described as follows: Inhibition of EGFR L858R mutant (unknown origin) transfected in mouse BAF3 cells assessed as reduction in cell viability after 72 hrs by MTS assay.
The nature of assay [3]: Inhibition of EGFR T790M/L858R double mutant (unknown origin) transfected in mouse BAF3 cells assessed as reduction in cell viability after 72 hrs by MTS assay. On the technique in general: Tetrazolium assays rely on reduction of a dye to a coloured formazan, in cell work by metabolically active cells.

The structures appear in SMILES notation. pEC50: −log10 of the molar value. A value given as a limit tells only on which side of the number the result lay.

As to `C=CC(=O)Nc1cccc(Oc2nc(Nc3ccc(N4CCN(C)CC4)cc3OC)ncc2Cl)c1`, the negative logarithm of the EC50 (pEC50) in assay [1] is 5.20.
Regarding `CCC(=O)Nc1cc(Nc2ncc(Cl)c(Nc3ccccc3S(=O)(=O)C(C)C)n2)c(OC)cc1N(C)CCN(C)C`, the negative logarithm of the EC50 (pEC50) in assay [2] was 6.18; in assay [3], 6.01.
As for `C=CC(=O)Nc1cc(Nc2nccc(Nc3ccccc3P(C)(C)=O)n2)c(OC)cc1N(C)CCN(C)C`, the pEC50 in assay [1] was less than 5.30.
Take `C=CC(=O)Nc1cc(Nc2nccc(-c3cn(C)c4ccccc34)n2)c(OC)cc1N(C)CCN(C)C` [AZD-9291]: in assay [1], the negative-log EC50 (pEC50) was 5.76.

By pEC50 is commonly meant the negative decadic logarithm of the EC50, by convention in mol/L.
